One data set concerns MIA PaCa-2 cells. Put plainly: Transwell migration assay. The conditions noted are these: for migrated cells (Fig S20): MIA PaCa-2 cells. It is filed as cell-based. On the procedure: Fig. 5 The BIVA effect with enhanced targeting to pancreatic tumor cell for boundaries imaging. a Illustration of BIVA effect: active targeting and assembly/aggregate induced retention (AIR) effect. b Chemical structure of FITC labeling. c 2D and 3D confocal images of M2 with active targeting property and M1 with BIVA effect on MIA PaCa-2 cells after incubation for 1 h. d The distribution of M1 on MIA PaCa-2 cell. e ThT staining of the lysed cell membrane of MIA PaCa-2. f, Illustration of migration inhibition after treated by BIVA probe. g The image of the migrated cells after treatment of PBS (blank), M2, M4, and M1. Scale bar: 100 μm. h The pie diagram of quantitative statistical calculation of the migrated cells (blue) in different groups. The blank control was set as 100% migrated cells.
In order to further understand the contribution of the active targeting and AIR effect during locating of the cells, the cell transwell experiment was used to quantitively evaluate interference of the cell migration based on M1, M2, and M4 (Fig. 5f). As expected, untreated cells were easy to migrate to the lower chamber, while the cells treated with active targeting molecule M2 and assembled molecule M4, the migration of cell were reduced. Under the same molar concentration, the M1 treatment group had the most inference on cell migration (Fig. 5g). […] Based on those results, we speculate M1 can be more enriched in the tumor site and form fibers through assembly to inhibit tumor cell migration compared to M2 and M4 which have no ability to target and adhere on the cell membrane.
Transwell migration assay occurred in chemotaxis chambers containing 24 wells. […] Bottom chambers contained DMEM medium containing 10% FBS. After 24 h of treatment with M1, M2, and M4 (150 μM), we fixed cells using 4% paraformaldehyde and stained with 0.25% crystal violet solution. The stained cells were counted using a microscope.
Supplementary Fig. 20∣ The quantitative results of the migrated cells after treatment of PBS (blank), M2, […] and
M1 (Fig 5g). The mean of results of fiveparallel experiments is shown and data were expressed as mean ± SD (n=5).
pM1 = 5.85E-06, pM2 = 5.94E-05, pM4 = 3.16 E-04, Statisticalanalysis: one-way ANOVA followed by post hoc Tukey’s
(1 picture or pasted object on this page, not shown here)

The conditions of data set [1]: mouse, in vivo, iv, 16 mg/kg.
Details of data set [2]: species or system mice. The conditions noted are these: mouse, in vivo, iv, 16 mg/kg. The text has this: The acute toxicity evaluation of M1 to mice were verified by blood biochemistry, hemograms, and histological analysis. The representative biomarkers of liver function included alanine aminotransferase (ALT), alkaline phosphatase (ALP), aspartate aminotransferase (AST), total protein (TP), and albumin concentration (ALB). […] In addition, the hematological assessment results including creatinine (CREA), white blood cells (WBC), red blood cells (RBC), hematocrit (HCT), mean corpuscular volume […], mean corpuscular hemoglobin […], mean corpuscular hemoglobin concentration (MCHC), red cell volume distribution width-coefficient of variation (RDW-CV), platelet (PLT)and mean platelet volume (MPV) were carried out (Fig. 8b). All the above indicators in PBS group and M1 group appeared normal, which was basically consistent with the normal range reported in the literature. Then the mice from PBS group and M1 group were sacrificed for the further histological section analysis of the significant organs. After Hematoxylin and Eosin (H&E) staining, the slices of heart, liver, spleen, lung, kidney, and pancreas were compared and evaluated (Fig. 8c).
Fig. 8 Acute toxicity evaluation. a Liver function indicators: alanine aminotransferase (ALT), alkaline phosphatase (ALP), aspartate aminotransferase (AST), total protein (TP) and albumin concentration (ALB). […] Staining: H&E; Injection dose of M1. (i.v. administration): 16 mg/kg; Administration time: 24 h. Scale bar 200 μm.
The female Balb/c nude mice (6–8 weeks, n = 3) were sacrificed for blood and major organs collection after treated with M1 at a dose of 16 mg/kg on the 24 h. The histology evaluation of major organs was performed by Google biotechnology (Wuhan) Co. LTD. The blood biochemistry and haematology analyses were carried out by Vital River Laboratory Animal Technology Co. Ltd.

Data set [3] has as its system orthotopic pancreatic tumor (MIA PaCa-2). The experiment in a line: Ex vivo organ biodistribution, orthotopic pancreatic tumor model. The settings on record: orthotopic tumor mice, i.v. 16 mg/kg, 12 h. How it is done:
To evaluate the imaging property of BIVA probe, the orthotopic pancreatic tumor mice model was built. After intravenous injected M1 and M2 molecules with a dose of 16 mg/kg for 12 h, the mice were sacrificed. […] Then, all the important organs were dissected for ex vivo imaging. […] Upon the individual differences, we validated 6 mice under surgery to induce orthotopic tumor in pancreatic head. […] As known, the FAP-α was a membrane located protein, overexpressed on tumor associate fibroblast cell and pancreatic cell surface.

Results on two substances are retold here after paper PMC8776730 (Nature Communications, 2022).

Regarding mPEG-GPAKLVFFGC(IR783)GRGD [M1], the “emigrate (migrated cells relative to blank)” value with MIA PaCa-2 cells (MIA PaCa-2, 150 μM, 24 h, blank control = 1) was found to be 0.3109. Besides, the “migrated cells (Fig S20)” value with MIA PaCa-2 cells (averge of groups 1-3) is reported as 285.333; in the data set with MIA PaCa-2 cells (group 1), 285; in the data set on MIA PaCa-2 cells (group 2), 302; with MIA PaCa-2 cells (group 3) it was 269. In addition, the “blood circulation half-life (t1/2)” value in data set [1] was 1.83 ± 0.05 h. The “hematological assessment (CREA, WBC, RBC, HCT, MCV, MCH, MCHC, RDW-CV, PLT, MPV)” value in data set [2] is “normal”. Moreover, the “hepatic toxicity (ALT, ALP, AST, TP, ALB)” value in data set [2] is listed as “no obvious hepatic toxicity”. The “organ damage in H&E slices of heart, liver, spleen, lung, kidney, pancreas” value in data set [2] is “no noticeable organ damage and tissue injury”. Besides, the “signal accumulation in tumor relative to M2” value in data set [3] is “twice”. In addition, the “Average radiant efficiency, spleen” value in data set [3] (average of n = 3) is 203.333 P/sec.
For “mPEG-GPAKLVFFGCGRGD [M3, the non-labeling molecule of M1 (no IR783)]”, the “migrated cells (Fig S20)” value in the data set with MIA PaCa-2 cells (averge of groups 1-3) came to 484.667; in the data set with MIA PaCa-2 cells (group 1), 483; in the data set on MIA PaCa-2 cells (group 2), 456; with MIA PaCa-2 cells (group 3), 515.
